Results taken from patent US5965575A, “N-aryl piperidine compounds as 5HT1B antagonists” (Adir Et Compagnie, priority 1997, dated 1999).

What was measured:
5-HT1B receptor = target: T1, 5-HT1B receptor (Cavia porcellus, UniProt O08892); assay: 5-HT1B binding ([3H]-GR 125743, guinea-pig striatal membranes); conditions: [3H]-GR 125743 1 nM, guinea-pig striata membranes
T1 construct: After dissection of guinea-pig brains, the extracted striata are frozen; from tissue; host or cells: guinea-pig striatum membranes
Method: After dissection of guinea-pig brains, the extracted striata are frozen and then homogenised in 20 volumes (weight/volume) of 50 mM tris-HCl (pH 7.7 at room temperature) containing 4 mM CaCl2 and 0.1% ascorbic acid, and centrifuged at 48,000 g for 25 minutes at 4° C. The supernatant is separated and the precipitate is resuspended in the same volume of buffer before being incubated at 37° C. for 15 minutes in order to extract the endogenous serotonin. Finally, the suspension is centrifuged at 48,000 g for 25 minutes at 4° C. and the precipitate is resuspended in 80 volumes of buffer containing 10 μM pargyline.
The binding studies ([^3 H]-GR 125743) are carried out in triplicate in the following buffer: 50 mM tris-HCl (pH 7.7 at room temperature) containing 4 mM CaCl2, 0.1% ascorbic acid and 10 μM pargyline. […]
The data are analysed by non-linear regression using the PRISM programme (Graphpad Software Inc., San Diego, Calif.) in order to determine the Kd values (dissociation constant of the radioligand), the Bmax values (maximum number of sites) for the saturation experiments and the IC50 values (50% inhibiting concentration) and the Hill number for the competition experiments. The inhibition constant (Ki) is calculated according to the Cheng-Prussof equation : Ki =IC50 /1+L/Kd wherein L represents the concentration of the radioligand. The results are expressed as pKi =-log Ki.

5-HT1A receptor = target: T2, 5-HT1A receptor (Rattus norvegicus, UniProt P19327); assay: 5-HT1A binding
T2 construct: from tissue
T2 sequence (P19327 1-422): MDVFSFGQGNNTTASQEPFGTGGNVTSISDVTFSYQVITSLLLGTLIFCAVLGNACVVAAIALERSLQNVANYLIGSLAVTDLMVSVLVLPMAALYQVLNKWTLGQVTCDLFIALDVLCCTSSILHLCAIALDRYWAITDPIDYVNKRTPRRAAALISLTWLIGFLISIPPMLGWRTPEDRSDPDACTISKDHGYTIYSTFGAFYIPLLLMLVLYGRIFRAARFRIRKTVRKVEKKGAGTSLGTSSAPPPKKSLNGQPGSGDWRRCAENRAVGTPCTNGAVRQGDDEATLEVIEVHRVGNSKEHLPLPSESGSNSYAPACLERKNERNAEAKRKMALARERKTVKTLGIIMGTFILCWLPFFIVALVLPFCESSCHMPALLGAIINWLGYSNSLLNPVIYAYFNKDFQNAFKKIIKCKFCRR
Method: The 5-HT1A receptor binding studies were carried out according to methods known and described in the literature (cf. S. J. Peroutka, J. Neurochem, 1986, 47, 529-40, M. J. Millan, J. Pharmacol. Exp. Ther., 1994, 268, 337-52). The results are also expressed as pKi.

5-HT1B = assay: Hypothermia test in the guinea-pig (antagonism of GR46611); format: in vivo; conditions: for ΔT ° C. (90 min) / ΔT ° C. (120 min): mean ± s.e.m.
Text: Using the hypothermia test on the guinea-pig (M. Stingle et al., J. of Psychopharmacology, 1994, 8, 14) it was possible to determine the agonist or antagonist nature of the products of the invention.
The guinea-pigs are kept in batteries of three, with free access to food and water, for one week before entering the study. One hour before each experiment, the guinea-pigs are placed in individual cages with free access to water. They are put back in their respective batteries at the end of each experiment. The temperature measurements are carried out using a digital thermometer and a rectal probe. Each guinea-pig is weighed, its base body temperature is taken and then the compound of the present invention to be evaluated is injected i.p. or p.o.
In the case of an agonist, the body temperature of each guinea-pig is taken every 30 minutes for 2 hours.
In the case of an antagonist, 15 minutes after injection each guinea-pig is injected again i.p. with the prototype agonist 5-HT1B : GR46611 (5 mg/kg/ml). The temperature is then taken every 30 minutes for 2 hours.
The criterion used for evaluation is the difference in temperature at a given time in relation to the base temperature. For each dose of product and for each time (t30, t60, t90, t120) the mean and the standard error of the mean are calculated.

[1] = tested on: extracellular concentration of serotonin; assay: Microdialysis experiment in rats (frontal cortex); format: in vivo; conditions: rat frontal cortex dialysate, subcutaneous route, compound alone
Text: Those tests, carried out in the frontal cortex, make it possible in the case where the products cause an increase in the release of serotonin to envisage their use for depression, impulsive disorders and obesity. If they cause a decrease in the release of serotonin they will be beneficial in the treatment of anxiety, panic attacks, sleep problems, cognitive problems and drug abuse. Finally, if they produce an increase in dopamine and/or noradrenalin, they will be beneficial in the treatment of schizophrenia and, as above, in the treatment of depression and cognitive problems.
The rats are anaesthetised with pentobarbital (60 mg/kg i.p.). […]
Simultaneous quantification of dopamine, norepinephrine and serotonin is carried out as follows: 20 μl of dialysis samples are diluted with 20 μl of mobile phase (NaH2 PO4 : 75 mM, EDTA: 20 μM, sodium dodecanesulphonate: 1 mM, methanol: 17.5%, triethylamine: 0.01%, pH: 5.70) and 33 μl are analysed by HPLC with an inverse phase column (Hypersil ODS 5 μm, C18, 150×4.6 mm, Thermo Separation Products, Les Ulis, France) thermo-statically controlled at 45° C. and quantified by way of a coulometric detector. […] The quantities of neurotransmitters are expressed as a function of the mean of the three base values. […]

[2] = 0.04 mg/kg i.p., then GR46611 5 mg/kg
[3] = 0.16 mg/kg i.p., then GR46611 5 mg/kg
[4] = injection 1 Vehicle i.p., injection 2 GR46611 5 mg/kg

T1 sequence (O08892 whole entry): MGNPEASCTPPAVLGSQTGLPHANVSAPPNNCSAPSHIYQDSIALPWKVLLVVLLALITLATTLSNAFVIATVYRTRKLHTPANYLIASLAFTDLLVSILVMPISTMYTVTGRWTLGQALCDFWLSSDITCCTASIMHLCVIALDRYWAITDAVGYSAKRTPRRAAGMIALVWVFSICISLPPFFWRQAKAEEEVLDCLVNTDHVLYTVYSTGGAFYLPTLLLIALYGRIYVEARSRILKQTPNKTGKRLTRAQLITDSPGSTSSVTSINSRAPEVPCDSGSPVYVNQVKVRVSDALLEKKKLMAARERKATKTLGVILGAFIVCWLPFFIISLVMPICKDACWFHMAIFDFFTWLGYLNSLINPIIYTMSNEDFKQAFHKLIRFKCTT

## c1cc2c(c(N3CCC(NCCC45CC6CC(CC(C6)C4)C5)CC3)c1)OCCO2 [Example 9, N-[2-(adamant-1-yl)ethyl]-N-[1-(2,3-dihydro[1,4]benzodioxin-5-yl)-piperid-4-yl]amine]
5-HT1B receptor
  Ki: 0.01 µM

## c1ccc2c(c1)CC2CNC1CCN(c2cccc3c2OCCO3)CC1 (stereo not shown) [Example 4, N-(benzocyclobuten-1-ylmethyl)-N-[1-(2,3-dihydro[1,4]benzodioxin-5-yl)piperid-4-yl]amine]
5-HT1A receptor
  Ki: 3.16 µM

## COc1cc2c(cc1OC)-c1cc(CCNC3CCN(c4cccc5c4OCCO5)CC3)cn1CC2 [Example 11, 5,6-dihydro-8,9-dimethoxy-2-{2-{[1-(2,3-dihydro[1,4]benzodioxin-5-yl)-piperid-4-ylamino]ethyl}}pyrrolo[2,1-a]isoquinoline]
5-HT1B; [2]
  ΔT ° C. (90 min): -1.10 ± 0.36 °C
  ΔT ° C. (120 min): -1.43 ± 0.24 °C
5-HT1B; [3]
  ΔT ° C. (90 min): -0.57 ± 0.17 °C
  ΔT ° C. (120 min): -0.67 ± 0.28 °C
5-HT1B; hypothermia test, i.p. route
  agonist or antagonist nature: acts as an antagonist

## COc1ccc(CNC(=O)/C=C/c2ccc3[nH]cc(CCN(C)C)c3c2)cc1 [GR46611, reference compound]
[1]
  extracellular concentration of serotonin: decrease in the extracellular concentration of serotonin
5-HT1B; [4]
  ΔT ° C. (90 min): -1.05 ± 0.13 °C
  ΔT ° C. (120 min): -1.40 ± 0.36 °C
